ChEMBL document CHEMBL5505958, “Optimization of sequence and chiral content enhances therapeutic potential of tilapia piscidin peptides” (Eur J Med Chem, 2024)
In brackets after ≈: the same amount, converted by molar mass. Activity calls are given as the source filed them. The rule behind the calls is not given here.

Legend:
[1] = test system: Rhizopus arrhizus; test: Fungicidal activity against Rhizopus oryzae 34550 assessed as inhibition of fungal growth incubated for 16 to 20 hrs in presence of human serum; assay type: functional; details: time 16-20 hrs
[2] = test system: Cell membrane; test: Induction of outer cell membrane permeabilization in Klebsiella pneumoniae BAA 2473 assessed as increase in fluorescence intensity by NPN uptake assay; assay type: cell membranes
[3] = test system: Klebsiella pneumoniae; test: Antibacterial activity against Klebsiella pneumoniae BAA 2473 assessed as inhibition of bacterial growth in presence of 1 microg/ml of chymotrypsin (reference value: 1.56 to 3.13 microM); assay type: functional
[4] = test system: Escherichia coli; test: Antibacterial activity against Escherichia coli 10675 assessed as inhibition of bacterial growth incubated for 16 to 20 hrs; assay type: functional; details: time 16-20 hrs
[5] = test system: Salmonella enterica; test: Antibacterial activity against Salmonella enterica 15455 assessed as inhibition of bacterial growth incubated for 16 to 20 hrs in presence of human serum; assay type: functional; details: time 16-20 hrs
[6] = test system: Pseudomonas aeruginosa; test: Antibacterial activity against Pseudomonas aeruginosa 19660 assessed as inhibition of bacterial growth incubated for 16 to 20 hrs in presence of human serum; assay type: functional; details: time 16-20 hrs
[7] = test system: Klebsiella pneumoniae; test: Bactericidal activity against Klebsiella pneumoniae BAA 2473 assessed as inhibition of bacterial growth in presence of 10 microg/ml of chymotrypsin (reference value: 1.56 to 3.13 microM); assay type: functional
[8] = test system: Klebsiella pneumoniae; test: Bactericidal activity against Klebsiella pneumoniae BAA 2473 assessed as inhibition of bacterial growth in presence of 0.1 microg/ml of proteinase K (reference value: 1.56 to 3.13 microM); assay type: functional
[9] = test system: Klebsiella pneumoniae; test: Antibacterial activity against Klebsiella pneumoniae BAA 2473 assessed as inhibition of bacterial growth in presence of 10 microg/ml of proteinase K (reference value: 1.56 to 3.13 microM); assay type: functional
[10] = test system: Acinetobacter baumannii; test: Bactericidal activity against Acinetobacter baumannii 10591 assessed as inhibition of bacterial growth incubated for 16 to 20 hrs in presence of human serum; assay type: functional; details: time 16-20 hrs
[11] = test system: Lipopolysaccharide (LPS); test: Displacement of BODIPY-TR-cadaverine from Klebsiella pneumoniae BAA 2473 lipopolysaccharide (LPS) assessed as increase in fluorescence intensity at 3.125 uM by fluorescence spectrophotometric analysis; assay type: subcellular
[12] = test system: Klebsiella pneumoniae; test: Bactericidal activity against Klebsiella pneumoniae BAA 2473 assessed as inhibition of bacterial growth in presence of 0.1 microg/ml of trypsin (reference value: 1.56 to 3.13 microM); assay type: functional
[13] = test system: Klebsiella pneumoniae; test: Antibacterial activity against Klebsiella pneumoniae BAA 2473 assessed as inhibition of bacterial growth in presence of 10 microg/ml of trypsin (reference value: 1.56 to 3.13 microM); assay type: functional
[14] = test system: Klebsiella pneumoniae; test: Bactericidal activity against Klebsiella pneumoniae BAA 2473 assessed as inhibition of bacterial growth in presence of 0.1 microg/ml of pepsin (reference value: 1.56 to 3.13 microM); assay type: functional
[15] = test system: Vibrio vulnificus; test: Antibacterial activity against Vibrio vulnificus 204 assessed as inhibition of bacterial growth incubated for 16 to 20 hrs; assay type: functional; details: time 16-20 hrs
[16] = test system: Escherichia coli; test: Bactericidal activity against Escherichia coli 10675 assessed as inhibition of bacterial growth incubated for 16 to 20 hrs in presence of human serum; assay type: functional; details: time 16-20 hrs
[17] = test system: Klebsiella pneumoniae; test: Antibacterial activity against Klebsiella pneumoniae BAA 2473 assessed as inhibition of bacterial growth in presence of doxycycline; assay type: functional
[18] = test system: Enterococcus faecalis; test: Antibacterial activity against Enterococcus faecalis 10066 assessed as inhibition of bacterial growth incubated for 16 to 20 hrs; assay type: functional; details: time 16-20 hrs
[19] = test system: Salmonella typhimurium; test: Antibacterial activity against Salmonella typhimurium DT104 assessed as inhibition of bacterial growth incubated for 16 to 20 hrs; assay type: functional, Salmonella enterica subsp. enterica serovar Typhimurium; details: Salmonella enterica, time 16-20 hrs
[20] = test system: Staphylococcus aureus; test: Bactericidal activity against Staphylococcus aureus 10780 assessed as inhibition of bacterial growth incubated for 16 to 20 hrs in presence of human serum; assay type: functional; details: time 16-20 hrs
[21] = test system: Klebsiella aerogenes; test: Bactericidal activity against Enterobacter aerogenes 15630 assessed as inhibition of bacterial growth incubated for 16 to 20 hrs; assay type: functional; details: time 16-20 hrs
[22] = test system: Klebsiella pneumoniae; test: Additive antibacterial activity against Klebsiella pneumoniae BAA 2473 assessed as fractional inhibitory concentration index in presence of meropenem by checkerboard assay; assay type: functional
[23] = test system: Enterococcus faecium; test: Bactericidal activity against Enterococcus faecium 10067 assessed as inhibition of bacterial growth incubated for 16 to 20 hrs in presence of human serum; assay type: functional; details: time 16-20 hrs
[24] = test system: Klebsiella pneumoniae; test: Bactericidal activity against Klebsiella pneumoniae 10692 assessed as inhibition of bacterial growth incubated for 16 to 20 hrs; assay type: functional; details: time 16-20 hrs
[25] = test system: Pseudomonas aeruginosa; test: Antibacterial activity against Pseudomonas aeruginosa 19660 assessed as inhibition of bacterial growth incubated for 16 to 20 hrs; assay type: functional; details: time 16-20 hrs
[26] = test system: Klebsiella pneumoniae; test: Induction of morphological changes in Klebsiella pneumoniae BAA 2473 assessed as membrane deformations with protruding granules at by transmission electron microscopy analysis; assay type: functional, organism-based
[27] = test system: Rhizopus arrhizus; test: Fungicidal activity against Rhizopus oryzae 34550 assessed as inhibition of fungal growth incubated for 72 hrs; assay type: functional
[28] = test system: Klebsiella pneumoniae; test: Antibacterial activity against Klebsiella pneumoniae BAA 2473 assessed as inhibition of bacterial growth in presence of 1 microg/ml of trypsin (reference value: 1.56 to 3.13 microM); assay type: functional
[29] = test system: Escherichia coli; test: Antibacterial activity against Escherichia coli 10675 assessed as inhibition of bacterial growth incubated for 16 to 20 hrs in presence of human serum; assay type: functional; details: time 16-20 hrs
[30] = test system: Salmonella typhimurium; test: Antibacterial activity against Salmonella typhimurium DT104 assessed as inhibition of bacterial growth incubated for 16 to 20 hrs in presence of human serum; assay type: functional, Salmonella enterica subsp. enterica serovar Typhimurium; details: Salmonella enterica, time 16-20 hrs
[31] = test system: Klebsiella pneumoniae; test: Antibacterial activity against Klebsiella pneumoniae BAA 2473 assessed as inhibition of bacterial growth in presence of 0.1 microg/ml of chymotrypsin (reference value: 1.56 to 3.13 microM); assay type: functional
[32] = test system: Salmonella enterica; test: Bactericidal activity against Salmonella enterica 15455 assessed as inhibition of bacterial growth incubated for 16 to 20 hrs in presence of human serum; assay type: functional; details: time 16-20 hrs
[33] = test system: Klebsiella pneumoniae; test: Antibacterial activity against Klebsiella pneumoniae BAA 2473 assessed as inhibition of bacterial growth in presence of 10 microg/ml of chymotrypsin (reference value: 1.56 to 3.13 microM); assay type: functional
[34] = test system: Cell membrane; test: Induction of cell membrane depolarization in Klebsiella pneumoniae BAA 2473 assessed as increase in fluorescence intensity at 1 times MIC incubated for 40 mins by DiBAC4(3) fluorescent dye based assay; assay type: cell membranes
[35] = test system: Klebsiella pneumoniae; test: Antibacterial activity against Klebsiella pneumoniae BAA 2473 assessed as ciprofloxacin MIC; assay type: functional
[36] = test system: Klebsiella pneumoniae; test: Antibacterial activity against Klebsiella pneumoniae BAA 2473 assessed as inhibition of bacterial growth in presence of 1 microg/ml of pepsin (reference value: 1.56 to 3.13 microM); assay type: functional
[37] = test system: Klebsiella pneumoniae; test: Bactericidal activity against Klebsiella pneumoniae BAA 2473 assessed as inhibition of bacterial growth in presence of 10 microg/ml of trypsin (reference value: 1.56 to 3.13 microM); assay type: functional
[38] = test system: Enterococcus faecium; test: Bactericidal activity against Enterococcus faecium 10067 assessed as inhibition of bacterial growth incubated for 16 to 20 hrs; assay type: functional; details: time 16-20 hrs
[39] = test system: Salmonella enterica; test: Bactericidal activity against Salmonella enterica 15455 assessed as inhibition of bacterial growth incubated for 16 to 20 hrs; assay type: functional; details: time 16-20 hrs
[40] = test system: Vibrio vulnificus; test: Antibacterial activity against Vibrio vulnificus 204 assessed as inhibition of bacterial growth incubated for 16 to 20 hrs in presence of human serum; assay type: functional; details: time 16-20 hrs

Compound | Activity [2] | MIC [3] [µM] | MIC [4] [µM] | MIC [5] [µM] | MIC [6] [µM] | MBC [7] [µM] | MBC [8] [µM] | MIC [9] [µM] | MBC [10] [µM] | Activity [11] [%] | MBC [12] [µM] | MIC [13] [µM] | MBC [14] [µM] | MIC [15] [µM] | MBC [16] [µM] | MIC [18] [µM] | MIC [19] [µM] | MBC [20] [µM] | MBC [21] [µM] | MBC [23] [µM] | other results
CC(C)C[C@H](NC(=O)[C@H](CCCCN)NC(=O)[C@@H](CCCCN)NC(=O)[C@H](CC(C)C)NC(=O)[C@@H](N)Cc1ccccc1)C(=O)N[C@H](CC(C)C)C(=O)N[C@@H](CCCCN)C(=O)N[C@@H](C)C(=O)N[C@H](CC(C)C)C(=O)N[C@@H](Cc1ccccc1)C(=O)N[C@@H](CO)C(=O)N[C@H](C)C(=O)N1CCC[C@H]1C(=O)N[C@@H](CCCCN)C(=O)N[C@H](C)C(=O)N[C@@H](CC(C)C)C(=O)N[C@@H](CCCCN)C(=O)N[C@H](CCCNC(=N)N)C(=O)N[C@@H](CC(C)C)C(=O)N[C@@H](CC(C)C)C(=O)N[C@H](CCCNC(=N)N)C(=O)N[C@@H](CCCNC(=N)N)C(=O)N[C@@H](CCCNC(=N)N)C(=O)N[C@H](CCCNC(=N)N)C(=O)N[C@@H](CCCNC(=N)N)C(=O)O | Active | 0.78 | 1.56 (≈ 4.8 µg/mL) | 0.78 | 3.13 | 0.78 | 0.78 | 0.78 | 6.25 | 100 | 0.78 | 1.56 | 0.78 | 12.5 (≈ 38.5 µg/mL) | 0.78 | 25 (≈ 77 µg/mL) | 6.25 (≈ 19.2 µg/mL) | 100 | 6.25 (≈ 19.2 µg/mL) | 100 | MBC [1]: 100 µM; MIC [17]: 0.39 µM; fractional inhibitory concentration index (FICI) [22]: 1; MBC [24]: 3.13 µM (≈ 9.64 µg/mL); MIC [25]: 3.13 µM (≈ 9.64 µg/mL); Activity [26]: Active; MFC [27]: 0.78 µM (≈ 2.4 µg/mL); MIC [28]: 1.56 µM; MIC [29]: 0.78 µM; MIC [30]: 3.13 µM; MIC [31]: 0.78 µM; MBC [32]: 0.78 µM; MIC [33]: 0.78 µM; Activity [34]: Active; MIC [35]: 0.195 µM; MIC [36]: 0.78 µM; MBC [37]: 1.56 µM; MBC [38]: 12.5 µM (≈ 38.5 µg/mL); MBC [39]: 6.25 µM (≈ 19.2 µg/mL); MIC [40]: 12.5 µM
H-FIHHIIGGLFSAGKAIHRLIRRRRR-OH | Active | > 100 | 6.25 | 100 | > 100 | > 100 | 1.56 | > 100 | 100 | 95 | 3.13 | > 100 | 3.13 | 3.13 | > 100 | 3.13 | 6.25 | 50 | 6.25 | 100 | MBC [1]: 100 µM; MBC [24]: 0.78 µM; Activity [26]: Active; MFC [27]: 1.56 µM; MIC [28]: > 100 µM; MIC [29]: > 100 µM; MIC [30]: > 100 µM; MIC [31]: 1.56 µM; MBC [32]: 100 µM; MIC [33]: > 100 µM; Activity [34]: Active; MIC [36]: > 100 µM; MBC [37]: > 100 µM; MBC [38]: 0.78 µM; MBC [39]: < 1.56 µM; MIC [40]: > 100 µM
CC(C)C[C@H](NC(=O)[C@@H](C)NC(=O)[C@@H](CCCCN)NC(=O)[C@H](CC(C)C)NC(=O)[C@@H](CC(C)C)NC(=O)[C@@H](CCCCN)NC(=O)[C@H](CCCCN)NC(=O)[C@@H](CC(C)C)NC(=O)[C@H](N)Cc1ccccc1)C(=O)N[C@H](Cc1ccccc1)C(=O)N[C@H](CO)C(=O)N[C@@H](C)C(=O)N1CCC[C@@H]1C(=O)N[C@H](CCCCN)C(=O)N[C@@H](C)C(=O)N[C@H](CC(C)C)C(=O)N[C@H](CCCCN)C(=O)N[C@@H](CCCNC(=N)N)C(=O)N[C@H](CC(C)C)C(=O)N[C@H](CC(C)C)C(=O)N[C@@H](CCCNC(=N)N)C(=O)N[C@H](CCCNC(=N)N)C(=O)N[C@H](CCCNC(=N)N)C(=O)N[C@@H](CCCNC(=N)N)C(=O)N[C@@H](CCCNC(=N)N)C(=O)O | Active | 0.78 | 1.56 (≈ 4.8 µg/mL) | 0.78 | 6.25 | 0.78 | 1.56 | 0.78 | 3.13 | 100 | 1.56 | 0.78 | 1.56 | 6.25 (≈ 19.2 µg/mL) | 0.78 | > 25 | 3.13 (≈ 9.64 µg/mL) | > 100 | 3.13 (≈ 9.64 µg/mL) | 100 | MFC [1]: 100 µM; MIC [17]: 0.39 µM; fractional inhibitory concentration index (FICI) [22]: 1.003; MBC [24]: 25 µM (≈ 77 µg/mL); MIC [25]: 3.13 µM (≈ 9.64 µg/mL); Activity [26]: Active; MFC [27]: 1.56 µM (≈ 4.8 µg/mL); MIC [28]: 0.78 µM; MIC [29]: 0.78 µM; MIC [30]: 6.25 µM; MIC [31]: 0.78 µM; MBC [32]: 0.78 µM; MIC [33]: 0.78 µM; Activity [34]: Active; MIC [35]: 50 µM; MIC [36]: 0.78 µM; MBC [37]: 1.56 µM; MBC [38]: 12.5 µM (≈ 38.5 µg/mL); MBC [39]: 3.13 µM (≈ 9.64 µg/mL); MIC [40]: 12.5 µM
